Experimental data as given in PubChem BioAssay (NCI).
Several values for one entry are separate records, joined by “and”; a condition that tells them apart may be missing. Equal values may be shown once.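 Results reflect a 48-hour exposure of cells in 96-well plates to compound at five concentrations. GI50 = concentration required for 50% inhibition of growth. TGI: concentration producing complete growth inhibition.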

Columns and labels:
Experiment in all cases: NCI anticancer screen, dose series, 48 h
PC-3 prostate = system: PC-3 prostate
MALME-3M melanoma = system: MALME-3M melanoma
HT29 colon = system: HT29 colon
A498 renal = system: A498 renal
MDA-MB-231 breast = system: MDA-MB-231 breast
LOX IMVI melanoma = system: LOX IMVI melanoma
HL-60(TB) leukemia = system: HL-60(TB) leukemia
SF-295 CNS = system: SF-295 CNS
BT-549 breast = system: BT-549 breast
K-562 leukemia = system: K-562 leukemia

Compound	GI50 (PC-3 prostate) [µM]	TGI (PC-3 prostate) [µM]	GI50 (MALME-3M melanoma) [µM]	TGI (MALME-3M melanoma)	GI50 (HT29 colon) [µM]	TGI (HT29 colon)	GI50 (A498 renal) [µM]	TGI (A498 renal) [µM]	GI50 (MDA-MB-231 breast) [µM]	TGI (MDA-MB-231 breast) [µM]	GI50 (LOX IMVI melanoma) [µM]	TGI (LOX IMVI melanoma) [µM]	GI50 (HL-60(TB) leukemia) [µM]	TGI (HL-60(TB) leukemia) [µM]	GI50 (SF-295 CNS) [µM]	TGI (SF-295 CNS) [µM]	GI50 (BT-549 breast) [µM]	TGI (BT-549 breast) [µM]	GI50 (K-562 leukemia) [µM]	TGI (K-562 leukemia) [µM]
CCn1c(SCC(=O)Nc2cc(C(F)(F)F)ccc2Cl)nc2ccccc2c1=O	14	> 100	34.3	> 100 µM	> 100	> 100 µM	16.4	59.2	18.9	> 100	> 100	> 100	> 100	> 100	71.9	> 100	35	> 100	> 100	> 100
CC1OC(CC(=O)O)Cc2c1c(O)c1c(O)cc(-c3cc(=O)c4c(=O)c5c(c(=O)c=4c3=O)CC(CC(=O)O)OC5C)c(O)c1c2O (centres undefined)	–	64.3	14.2	29.2 µM and 38.5 µM	26.1	55.6 µM and 94.7 µM	–	58.9	29.4	64.9	–	36.5	–	> 49.1	77.3	> 100	52.7	–	61.1	> 83.6
FC(F)(F)c1nc(SCc2ccc(Cl)cc2)n[nH]1	–	> 100	–	> 100 µM	–	> 100 µM	–	> 100	–	> 100	–	> 100	–	> 100	–	> 100	–	> 100	–	> 100
CC(C)=Cc1cccc2[nH]c(O)c(N=Nc3ccc(S(N)(=O)=O)cc3)c12	6.2	> 25	> 25	> 25 µM	3.36	> 25 µM	> 25	> 25	7.17	> 25	2.67	> 25	3.37	> 25	3.4	> 25	> 22.8	> 25	3.69	> 25
COc1ccc2nc3c(cc2c1)C(=O)CC(c1ccccc1)C3 (centres undefined)	0.901	> 100	0.432	> 100 µM	0.439	> 100 µM	0.215	1.18	3	> 100	1.33	> 100	0.301	–	0.905	11	1.36	> 100	0.359	> 100
O=S(=O)(O)n1ccnc1 (tested in a mixture with another compound)	–	> 100	–	> 100 µM	–	> 100 µM	–	> 100	–	> 100	–	> 100	–	> 100	–	> 100	–	> 100	–	> 100
C#CCOC(=O)/C=C/C(=O)Oc1ccc2c(C)cc(=O)oc2c1	> 100	> 100	> 100	> 100 µM	> 100	> 100 µM	> 100	> 100	> 100	> 100	> 100	> 100	> 100	> 100	> 100	> 100	> 100	> 100	> 100	> 100
